Experimental data: patent US10519099B2, “Cystobactamides” (priority 2014, dated 2019)
In brackets after ≈: the same amount, converted by molar mass.

How the values were obtained:
[1] = test system: Acinetobacter baumannii DSM-30008; assay: MIC microdilution, A. baumannii DSM-30008; assay type: cell-based
Description: (§1) Indicator strains used in susceptibility assays were either part of our strain collection or purchased from the German Collection of Microorgansims and Cell Cultures (DSMZ) or from the American Type Culture Collection (ATCC). E. coli strain WT and corresponding E. coli mutants were kindly provided by Prof. Dr. P. Heisig, Pharmaceutical Biology and Microbiology, University of Hamburg. E. coli strains JW0401-1 (WT) and Δtsx were obtained from the CGSC collection.
(§2) MIC values were determined in standardized microdilution assays. Overnight cultures were diluted in the appropriate growth medium to achieve an inoculum of 10^4-10^6 cfu/mL. Yeasts were grown in Myc medium (1% phytone peptone, 1% glucose, 50 mM HEPES, pH 7.0), S. pneumonia and Enterococcus spp. in tryptic soy broth (TSB: 1.7% peptone casein, 0.3% peptone soymeal, 0.25% glucose, 0.5% NaCl, 0.25% K2HPO4; pH 7.3); M. smegmatis in Middlebrook 7H9 medium supplemented with 10% Middlebrook ADC enrichment and 2 ml/I glycerol). All other listed bacteria were grown in Müller-Hinton broth (0.2% beef infusion solids, 1.75% casein hydrolysate, 0.15% starch, pH 7.4). Cystobactamides and reference drugs were added directly to the cultures in sterile 96-well plates as duplicates and serial dilutions were prepared. Microorganisms were grown on a microplate shaker (750 rpm, 30-37° C., 18-48 h), except S. pneumonia, which was grown at non-shaking conditions (37° C., 5% CO2, 18 h). Growth inhibition was assessed by visual inspection and the MIC was defined as the lowest concentration of compound that inhibited visible growth.

[2] = test system: Citrobacter freundii DSM-30039; assay: MIC microdilution, C. freundii DSM-30039; assay type: cell-based
Description: as §1, §2

E. coli DSM-1116 = assay: MIC microdilution, E. coli DSM-1116; assay type: cell-based, Escherichia coli
Description: as §1, §2

[3] = test system: E. coli DSM-26863 (tolC3); assay: MIC microdilution, E. coli DSM-26863 (tolC3); assay type: cell-based, Escherichia coli
Description: as §1, §2

E. coli JW0401-1 (WT) = assay: MIC microdilution, E. coli JW0401-1 (WT); assay type: cell-based, Escherichia coli; conditions: Gram-negative set
Description: as §1
as §2, with “Cystobactamides and reference drugs were added directly to the cultures in sterile 96-well plates as duplicates and serial dilutions were prepared. Microorganisms were grown on a microplate shaker (750 rpm, 30-37° C., 18-48 h), except S. pneumonia, which was grown at non-shaking conditions (37° C., 5% CO2, 18 h).” left out

E. coli Δtsx = assay: MIC microdilution, E. coli Δtsx; assay type: cell-based, Escherichia coli; conditions: Gram-negative set
Description: as §1
as §2, with “Cystobactamides and reference drugs were added directly to the cultures in sterile 96-well plates as duplicates and serial dilutions were prepared. Microorganisms were grown on a microplate shaker (750 rpm, 30-37° C., 18-48 h), except S. pneumonia, which was grown at non-shaking conditions (37° C., 5% CO2, 18 h).” left out

E. coli WT = assay: MIC microdilution, E. coli WT; assay type: cell-based, Escherichia coli
Description: as §1, §2

[4] = test system: E. coli WT-3 [gyrA(S83L, D87G)]; assay: MIC microdilution, E. coli WT-3 [gyrA(S83L, D87G)]; assay type: cell-based, Escherichia coli
Description: as §1, §2

[5] = test system: E. coli WT-III [marRΔ74bp]; assay: MIC microdilution, E. coli WT-III [marRΔ74bp]; assay type: cell-based, Escherichia coli
Description: as §1, §2

[6] = test system: P. aeruginosa DSM-24600 (ESBL); assay: MIC microdilution, P. aeruginosa DSM-24600 (ESBL); assay type: cell-based, Pseudomonas aeruginosa
Description: as §1, §2

[7] = test system: Proteus vulgaris DSM-2140; assay: MIC microdilution, P. vulgaris DSM-2140; assay type: cell-based
Description: as §1, §2

[8] = test system: Escherichia coli (TolC-deficient); assay: MIC microdilution, E. coli (TolC-deficient); assay type: cell-based; conditions: larger panel
Description: as §1
as §2, with “Cystobactamides and reference drugs were added directly to the cultures in sterile 96-well plates as duplicates and serial dilutions were prepared. Microorganisms were grown on a microplate shaker (750 rpm, 30-37° C., 18-48 h), except S. pneumonia, which was grown at non-shaking conditions (37° C., 5% CO2, 18 h).” left out

[9] = test system: Enterobacter cloacae DSM-30054; assay: MIC microdilution, Enterobacter cloacae DSM-30054; assay type: cell-based; conditions: larger panel
Description: Dr. P. Heisig, Pharmaceutical Biology and Microbiology, University of Hamburg.
Overnight cultures were diluted in the appropriate growth medium to achieve an inoculum of 10^4-10^6 cfu/mL. […] Cystobactamides and reference drugs were added directly to the cultures in sterile 96-well plates as duplicates and serial dilutions were prepared. Microorganisms were grown on a microplate shaker (750 rpm, 30-37° C., 18-48 h), except S. pneumonia, which was grown at non-shaking conditions (37° C., 5% CO2, 18 h). Growth inhibition was assessed by visual inspection and the MIC was defined as the lowest concentration of compound that inhibited visible growth.

[10] = test system: Pseudomonas aeruginosa PA14; assay: MIC microdilution, P. aeruginosa PA14; assay type: cell-based; conditions: larger panel
Description: as §1, §2

[11] = test system: Pseudomonas aeruginosa ATCC27853; assay: MIC microdilution, P. aeruginosa ATCC27853; assay type: cell-based; conditions: larger panel
Description: as §1, §2

[12] = test system: Pseudomonas aeruginosa DSM-24599; assay: MIC microdilution, P. aeruginosa DSM-24599; assay type: cell-based; conditions: larger panel
Description: as §1, §2

[13] = test system: Pseudomonas aeruginosa DSM-46316 (ESBL); assay: MIC microdilution, P. aeruginosa DSM-46316 (ESBL); assay type: cell-based; conditions: larger panel
Description: as §1, §2

[14] = test system: Serratia marcescens DSM-30121; assay: MIC microdilution, Serratia marcescens DSM-30121; assay type: cell-based; conditions: larger panel
Description: as §1, §2

[15] = test system: Enterococcus faecium DSM-20477; assay: MIC microdilution, Enterococcus faecium DSM-20477; assay type: cell-based; conditions: larger panel
Description: as §1, §2

[16] = test system: Staphylococcus epidermidis DSM-28765; assay: MIC microdilution, Staphylococcus epidermidis DSM-28765; assay type: cell-based; conditions: larger panel
Description: as §1, §2

[17] = test system: CHO-K1 (Chinese hamster ovary cell line); assay: Cytotoxicity (MTT), CHO-K1 cell line; assay type: cell-based; conditions: 5 d incubation
Description: CHO-K1 cells were obtained from the DSMZ and were cultured under conditions recommended by the depositor. Cells were seeded at 6×10^3 cells/well of 96-well plates in 180 μl complete medium and treated with compounds in serial dilution after 2 h of equilibration. Each sample was tested in duplicate as well as the internal DMSO control. After 5 d incubation, 20 μl of 5 mg/ml MTT (thiazolyl blue tetrazolium bromide) in PBS was added per well and it was further incubated for 2 h at 37° C. The medium was then discarded and cells were washed with 100 μl PBS before adding 100 μl 2-propanol/10 N HCl (250:1) in order to dissolve formazan granules. The absorbance at 570 nm was measured using a microplate reader (Tecan Infinite M200Pro), and cell viability was expressed as percentage relative to the respective […] control.

E. coli gyrase = target: T1, E. coli gyrase (Escherichia coli, UniProt P0AES4+P0AES6); assay: E. coli gyrase DNA supercoiling assay; assay type: biochemical; conditions: read-out: IC50 Ec gyrase (sc)
T1 construct: purchased Inspiralis, Norwich, UK
Description: (§3) To test the anti-gyrase activity of cystobactamides, commercial E. coli and P. aeruginosa gyrase supercoiling kits (Inspiralis, Norwich, UK) were used. For standard reactions 0.5 μg relaxed plasmid were mixed with 1 unit gyrase in 1× reaction buffer (see kit manual) and incubated for 30 min at 37° C. The reactions were quenched by the addition of DNA gel loading buffer containing 10% (w/v) SDS. The samples were separated on 1% (w/v) agarose gels and DNA was visualized using EtBr. All natural products stock solutions and dilutions were prepared in 100% DMSO and added to the supercoiling reactions giving a final DMSO concentration of 2% (v/v).

P. aeruginosa gyrase = target: T2, P. aeruginosa gyrase (Pseudomonas aeruginosa, UniProt P48372+Q9I7C2); assay: P. aeruginosa gyrase DNA supercoiling assay; assay type: biochemical; conditions: read-out: IC50 Pa gyrase (sc)
T2 construct: purchased Inspiralis, Norwich, UK
Description: as §3

## CO[C@@H](C(N)=O)[C@H](NC(=O)c1ccc(NC(=O)c2ccc([N+](=O)[O-])cc2)cc1)C(=O)Nc1ccc(C(=O)Nc2ccc(C(=O)Nc3ccc(C(=O)O)cc3)c(O)c2OC(C)C)cc1 [Cys 861-2]
[1]; Gram-negative set
  MIC A. baumannii DSM-30008: 0.5 µg/mL (≈ 0.58 µM)
[1]; larger panel
  MIC Acinetobacter baumannii DSM-30008: 0.5 µg/mL (≈ 0.58 µM)
[2]; Gram-negative set
  MIC C. freundii DSM-30039: 0.06 µg/mL (≈ 0.0696 µM)
[2]; larger panel
  MIC Citrobacter freundii DSM-30039: 0.06 µg/mL (≈ 0.0696 µM)
E. coli DSM-1116; Gram-negative set
  MIC E. coli DSM-1116: 0.13 µg/mL (≈ 0.151 µM)
E. coli DSM-1116; larger panel
  MIC Escherichia coli DSM-1116: 0.4 µg/mL (≈ 0.464 µM)
[3]; Gram-negative set
  MIC E. coli DSM-26863 (tolC3): 0.06 µg/mL (≈ 0.0696 µM)
[3]; larger panel
  MIC Escherichia coli DSM-26863 (tolC3): 0.4 µg/mL (≈ 0.464 µM)
E. coli JW0401-1 (WT)
  MIC E. coli JW0401-1 (WT): 0.25 µg/mL (≈ 0.29 µM)
E. coli Δtsx
  MIC E. coli Δtsx: 0.25 µg/mL (≈ 0.29 µM)
E. coli WT; Gram-negative set
  MIC E. coli WT: 0.13 µg/mL (≈ 0.151 µM)
E. coli WT; larger panel
  MIC Escherichia coli WT: 0.125 µg/mL (≈ 0.145 µM)
[4]; Gram-negative set
  MIC E. coli WT-3 [gyrA(S83L, D87G)]: 0.5 µg/mL (≈ 0.58 µM)
[4]; larger panel
  MIC Escherichia coli WT-3 [gyrA(S83L, D87G)]: 0.5 µg/mL (≈ 0.58 µM)
[5]; Gram-negative set
  MIC E. coli WT-III [marRΔ74bp]: 0.5 µg/mL (≈ 0.58 µM)
[5]; larger panel
  MIC Escherichia coli WTIII (marRΔ74bp): 0.5 µg/mL (≈ 0.58 µM)
[6]; Gram-negative set
  MIC P. aeruginosa DSM-24600 (ESBL): 1 µg/mL (≈ 1.16 µM)
[6]; larger panel
  MIC Pseudomonas aeruginosa DSM-24600 (ESBL): 1 µg/mL (≈ 1.16 µM)
[7]; Gram-negative set
  MIC P. vulgaris DSM-2140: 0.25 µg/mL (≈ 0.29 µM)
[7]; larger panel
  MIC Proteus vulgaris DSM-2140: 0.25 µg/mL (≈ 0.29 µM)
[8]
  MIC Escherichia coli (TolC-deficient): 0.06 µg/mL (≈ 0.0696 µM)
[9]
  MIC Enterobacter cloacae DSM-30054: 64 µg/mL (≈ 74.3 µM)
[10]
  MIC Pseudomonas aeruginosa PA14: 2 µg/mL (≈ 2.32 µM)
[11]
  MIC Pseudomonas aeruginosa ATCC27853: 4 µg/mL (≈ 4.64 µM)
[12]
  MIC Pseudomonas aeruginosa DSM-24599: 2 µg/mL (≈ 2.32 µM)
[13]
  MIC Pseudomonas aeruginosa DSM-46316 (ESBL): 2 µg/mL (≈ 2.32 µM)
[14]
  MIC Serratia marcescens DSM-30121: 64 µg/mL (≈ 74.3 µM)
[15]
  MIC Enterococcus faecium DSM-20477: 0.5 µg/mL (≈ 0.58 µM)
[16]
  MIC Staphylococcus epidermidis DSM-28765: 0.5 µg/mL (≈ 0.58 µM)
[17]
  IC50: > 100 µM
E. coli gyrase
  IC50: 280 nM
P. aeruginosa gyrase
  IC50: 180 nM
CHO-K1 cell line
  genotoxic effect, micronucleus formation: No detectable genotoxic effect
